Patent US20250313560A1, “Novel bicyclic benzylamido pyridine derivatives as SOS1 inhibitors” (Boehringer Ingelheim International GmbH, priority 2024, published 2025)
Where two headings read alike, the source gives them in different places.

Experiments:
CYP3A4 = CYP3A4 (Homo sapiens (Human), UniProt P08684); test: Mechanism-based inhibition of CYP3A4 assay (MBI 3A4); type: in vitro ADME; settings: human liver microsomes, midazolam substrate, hydroxy-midazolam formation after 30 min preincubation relative to 0 min; for inhibition at 30 min: human, probe midazolam 15 μM (hydroxy-midazolam formation), read-out: MBI inhibition % ctrl. [%] with MDZ
In short: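 Human liver microsomes (0.2 mg/mL) were preincubated with compound at 0, 5 or 25 μM plus 1 mM NADPH for 0, 10 or 30 min, then diluted 1:10 and incubated 10 min with 15 μM midazolam. Hydroxy-midazolam was measured by LC/MS-MS; readout is formation after 30 min relative to 0 min preincubation (%).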

human hepatocytes = test: Metabolic stability in human hepatocytes; settings: 1 μM test compound, 50% human serum, percentage of liver blood flow
Description: The metabolic degradation of a test compound is performed with hepatocytes in suspension. After recovery from cryopreservation, human hepatocytes are diluted in Dulbecco's modified eagle medium (supplemented with 3.5 μg glucagon/500 mL, 2.5 mg insulin/500 mL, 3.75 mg hydrocortisone/500 mL, 50% human serum) to obtain a final cell density of 1.0×10^6 cells/mL. Following a preincubation in a cell culture incubator (37° C., 10% CO2), test compound dissolved in DMSO is mixed with the hepatocyte suspension, resulting in a final test compound concentration of 1 μM and a final DMSO concentration of 0.05%.
The cell suspension is incubated at 37° C. (cell culture incubator, horizontal shaker) and samples are removed from the incubation after 0, 0.5, 1, 2, 4 and 6 hours. Samples are quenched with acetonitrile (containing internal standard) and pelleted by centrifugation. The supernatant is transferred to a deep-well plate and prepared for analysis of decline of parent compound by HPLC-MS/MS.
The percentage of remaining test compound is calculated using the peak area ratio (test compound/internal standard) of each incubation time point relative to the time point 0 peak area ratio. The log-transformed data are plotted versus incubation time, and the absolute value of the slope obtained by linear regression analysis is used to estimate in vitro half-life (T1/2).
CL_[sequence]_IN VIVO[mL/min/kg]=(CL_[sequence][μL/min/10^6cells]×hepatocellularity[10^6cells/g liver]×liver factor[g/kg body weight])/1000
Hepatic in vivo blood clearance (CL) is predicted according to the well-stirred liver model considering an average liver blood flow (QH) of 20.7 mL/min/kg:
CL[mL/min/kg]=CL_[sequence]_IN VIVO[mL/min/kg]×hepatic blood flow[mL/min/kg]/(CL_[sequence]_IN VIVO[mL/min/kg]+hepatic blood flow[mL/min/kg])
Results are expressed as percentage of hepatic blood flow:
QH[%]=CL[mL/min/kg]/hepatic blood flow[mL/min/kg])

SOS1 and KRAS G12C = SOS1 and KRAS G12C (Homo sapiens (Human), UniProt Q07889); test: KRAS::SOS1 AlphaScreen binding assay (KRAS G12C); settings: average of at least two measurements
P450 3A4 = P450 3A4 (Homo sapiens (Human), UniProt P08684); test: Cytochrome P450 isoenzyme inhibition assay (P450 3A4, midazolam); type: in vitro ADME; settings: human liver microsomes, Midazolam as substrate; read-out: CYP3A4 inhibition IC50
In short: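 Midazolam (5 μM) hydroxylation by human liver microsomes (0.1 mg/ml) in 0.1 M TRIS with 5 mM MgCl2, started with 1 mM NADPH. Five compound concentrations in duplicate, e.g. top 50 μM with 1:4 dilutions. Metabolite quantified by LC-MS/MS against internal standard; IC50 from inhibition relative to no-compound control.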

SOS1 and KRAS G12D = SOS1 and KRAS G12D (Homo sapiens (Human), UniProt Q07889); test: KRAS::SOS1 AlphaScreen binding assay (KRAS G12D); settings: average of at least two measurements
[1] = test system: ERK phosphorylation in NCI-H358 SOS2 KO cells (KRAS G12C); test: Erk phosphorylation assay; type: cell-based, human; settings: EGF stimulated, average of at least two measurements, read-out: pERK IC50
In short: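 NCI-H358 SOS2 KO cells (KRAS G12C) in DMEM/2% FBS were pretreated 50 min with compound, then stimulated with EGF (approx. 8 ng/mL) for 10-15 min. pERK1/2 (Thr202/Tyr204) measured in lysates by AlphaLISA SureFire; IC50 from variable-slope fit, averaged over at least two measurements.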

[2] = Homo sapiens, NCI-H358, NCI-H358 SOS2 KO cells

Sequence of SOS1 and KRAS G12C (Q07889 564-1049, stated change not applied): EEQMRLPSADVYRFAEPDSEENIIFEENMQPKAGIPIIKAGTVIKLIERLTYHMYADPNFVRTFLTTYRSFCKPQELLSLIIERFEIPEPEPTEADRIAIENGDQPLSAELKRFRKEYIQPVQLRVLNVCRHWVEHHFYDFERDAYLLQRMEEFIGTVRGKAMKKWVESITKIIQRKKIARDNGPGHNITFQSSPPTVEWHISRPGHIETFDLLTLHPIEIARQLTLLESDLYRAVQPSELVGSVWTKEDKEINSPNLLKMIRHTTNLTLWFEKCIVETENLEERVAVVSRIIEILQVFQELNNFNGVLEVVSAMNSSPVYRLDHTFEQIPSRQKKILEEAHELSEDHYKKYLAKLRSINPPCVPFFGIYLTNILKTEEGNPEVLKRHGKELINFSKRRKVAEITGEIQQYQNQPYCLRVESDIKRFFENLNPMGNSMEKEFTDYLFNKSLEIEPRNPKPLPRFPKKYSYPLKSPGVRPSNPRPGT
Sequence of SOS1 and KRAS G12D (Q07889 564-1049, stated change not applied): as above
Sequence of CYP3A4 (P08684 whole entry): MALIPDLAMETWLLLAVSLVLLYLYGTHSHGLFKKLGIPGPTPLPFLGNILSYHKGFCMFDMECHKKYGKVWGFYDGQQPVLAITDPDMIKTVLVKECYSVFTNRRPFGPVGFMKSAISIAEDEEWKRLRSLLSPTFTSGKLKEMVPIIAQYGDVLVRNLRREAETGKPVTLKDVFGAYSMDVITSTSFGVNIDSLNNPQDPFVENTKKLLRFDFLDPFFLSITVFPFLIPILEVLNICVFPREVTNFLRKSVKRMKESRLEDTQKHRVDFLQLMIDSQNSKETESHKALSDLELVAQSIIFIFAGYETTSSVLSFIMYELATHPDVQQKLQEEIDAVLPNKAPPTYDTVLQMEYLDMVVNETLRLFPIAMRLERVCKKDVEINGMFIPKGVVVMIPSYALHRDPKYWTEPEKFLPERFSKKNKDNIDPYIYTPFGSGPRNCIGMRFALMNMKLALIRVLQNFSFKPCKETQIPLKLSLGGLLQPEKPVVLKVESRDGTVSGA
Sequence of P450 3A4 (P08684 whole entry): as above

| SMILES | inhibition at 30 min (CYP3A4) | Hepatic clearance - QH[%] in human hepatocytes (human hepatocytes) | IC50 (SOS1 and KRAS G12C) | IC50 (P450 3A4) | IC50 (SOS1 and KRAS G12D) | IC50 ([1]; NCI-H358 SOS2 KO cells) | IC50 [1, 2] | MBI inhibition % ctrl. [%] with MDZ (CYP3A4) |
| --- | --- | --- | --- | --- | --- | --- | --- | --- |
| C[C@@H](NC(=O)c1cc(N2CCC3CCNC3C2)c2ncnn2c1)c1cccc(C(F)(F)F)c1F (single isomer, unassigned) [Example cis-E52b] | 98% | 14% | 71 nM | > 50000 nM | 70 nM | 40 nM |  |  |
| C[C@@H](NC(=O)c1cc(N2CCC(N3CCC[C@@H](O)C3)CC2)c2ncnn2c1)c1cccc(C(F)F)c1F [Example E22] | 100% | 19% | 48 nM | > 50000 nM | 49 nM |  | 187 nM |  |
| C[C@@H](NC(=O)c1cc(N2CCC(N3CCCC3)CC2)c2ncnn2c1)c1cccc(C(F)(F)F)c1F [Example E48] | 92% | 27% | 69 nM | > 50000 nM | 60 nM |  | 82 nM |  |
| C[C@@H](NC(=O)c1cc(N2CCC(N(C)C)CC2)c2ncnn2c1)c1cccc(C(F)(F)F)c1F [Example E35] | 94% | 6% | 57 nM | > 50000 nM | 48 nM |  | 160 nM |  |
| C[C@@H](NC(=O)c1cc(N2CCC(NC3COCC3O)CC2)c2ncnn2c1)c1cccc(C(F)F)c1F (single isomer, unassigned) [Example cis-E16a] | 92% | 32% | 45 nM | > 50000 nM | 41 nM |  | 320 nM |  |
| C[C@@H](NC(=O)c1cc(N2CCC(N3CC4CC4(CO)C3)CC2)c2ncnn2c1)c1cccc(C(F)F)c1F (single isomer, unassigned) [Example cis-E21a] | 102% | 25% | 81 nM | > 50000 nM | 61 nM |  | 216 nM |  |
| Cc1nc2c([C@H]3CC[C@H](N4CCCC4)CC3)cc(C(=O)N[C@H](C)c3cccc(C(F)F)c3F)cn2n1 [Example E84] | 103% | 10% | 38 nM | > 50000 nM | 37 nM |  | 174 nM |  |
| C[C@@H](NC(=O)c1cc([C@]2(O)CC[C@@H](N3CC[C@H](F)C3)CC2)c2ncnn2c1)c1cccc(C(F)F)c1F [Example E66] | 81% | 32% | 74 nM | > 50000 nM | 79 nM |  | 152 nM |  |
| C[C@H](O)CNC1CCN(c2cc(C(=O)N[C@H](C)c3cccc(C(F)(F)F)c3F)cn3ncnc23)CC1 [Example E40] | 75% | 22% | 50 nM | > 50000 nM | 53 nM |  | 277 nM |  |
| Cc1c([C@@H](C)NC(=O)c2cc(N3CCC4(CCCN4C)CC3)c3nnc(C)n3c2)cccc1C(F)(F)F [Example E80] | 88% | <4% | 37 nM | > 50000 nM | 27 nM |  | 213 nM |  |
| C[C@@H](NC(=O)c1cc([C@]2(O)CC[C@@H](N3CC[C@H](F)C3)CC2)c2ncnn2c1)c1cccc(C(F)(F)F)c1F [Example E71] | 94% | 7% | 79 nM | > 50000 nM | 79 nM |  | 196 nM |  |
| C[C@@H](NC(=O)c1cc([C@H]2CC[C@H](N3CCC(F)C(O)C3)CC2)c2ncnn2c1)c1cccc(C(F)(F)F)c1F (single isomer, unassigned) [Example trans-E70b] | 107% | 19% | 36 nM | > 50000 nM | 42 nM | 169 nM |  |  |

Now those with a lower IC50 (SOS1 and KRAS G12C), led by results:

| inhibition at 30 min (CYP3A4) | Hepatic clearance - QH[%] in human hepatocytes (human hepatocytes) | IC50 (SOS1 and KRAS G12C) | IC50 (P450 3A4) | IC50 (SOS1 and KRAS G12D) | IC50 ([1]; NCI-H358 SOS2 KO cells) | IC50 [1, 2] | MBI inhibition % ctrl. [%] with MDZ (CYP3A4) | SMILES |
| --- | --- | --- | --- | --- | --- | --- | --- | --- |
| 98% | 21% | 33 nM | > 50000 nM | 32 nM |  | 92 nM |  | C[C@@H](NC(=O)c1cc(N2CCC(N3CCC[C@H]3CO)CC2)c2ncnn2c1)c1cccc(C(C)(F)F)c1F [Example E72] |
| 96% | 15% | 32 nM | > 50000 nM | 32 nM |  | 122 nM |  | C[C@@H](NC(=O)c1cc([C@H]2CC[C@H](N3CCC[C@@H](O)C3)CC2)c2ncnn2c1)c1cccc(C(F)F)c1F [Example E58] |
| 98% | 17% | 33 nM | > 50000 nM | 30 nM |  | 118 nM |  | C[C@@H](NC(=O)c1cc(N2CCC(N3CCC[C@@H]3CO)CC2)c2ncnn2c1)c1cccc(C(F)F)c1F [Example E1] |
| 90% | 25% | 31 nM | > 50000 nM | 21 nM |  | 152 nM |  | C[C@@H](NC(=O)c1cc(N2CCC3(CCCN3C)CC2)c2ncnn2c1)c1cccc(C(F)(F)F)c1F [Example E37] |
|  | 24% | 26 nM | > 50000 nM | 19 nM | 316 nM |  | 87% | C[C@@H](NC(=O)c1cc(N2CCC(NC3COCC3O)CC2)c2ncnn2c1)c1cccc(C(F)F)c1F (single isomer, unassigned) [Example cis-E16b] |
| 98% | 9% | 22 nM | > 50000 nM | 15 nM |  | 315 nM |  | C[C@@H]1C[C@@H](O)CN1[C@H]1CC[C@H](c2cc(C(=O)N[C@H](C)c3cccc(C(F)F)c3F)cn3ncnc23)CC1 [Example E62] |
| 97% | <4% | 33 nM | > 50000 nM | 30 nM |  | 139 nM |  | C[C@@H](NC(=O)c1cc(N2CCC3(CCCCN3)CC2)c2ncnn2c1)c1cccc(C(F)(F)F)c1F [Example E45] |
| 88% | <4% | 27 nM | > 50000 nM | 22 nM |  | 202 nM |  | C[C@@H](NC(=O)c1cc(N2CCC3(CCCN3C)CC2)c2nncn2c1)c1cccc(C(F)(F)F)c1F [Example E77] |
| 95% | 10% | 33 nM | > 50000 nM | 33 nM |  | 46 nM |  | C[C@@H](NC(=O)c1cc([C@H]2CC[C@H](N3CCC[C@H](O)C3)CC2)c2ncnn2c1)c1cccc(C(F)(F)F)c1F [Example E67] |
